Laboratory results taken from patent US20040009927A1, “Methods and compounds for reducing biofilm formulation” (priority 2002, published 2004).

Tested on: MG1655 and its csrA mutant TRMG1655, cya mutants and cya wild type
Details: cAMP 2 or 5 mM in growth medium; in most cases

Nc1ncnc2c1ncn2[C@@H]1O[C@@H]2COP(=O)(O)O[C@H]2[C@H]1O [cAMP, cyclic AMP]
biofilm formation by cya wild type strains: increased biofilm formation
